Measured values taken from publication PMC9492542, “Brain-restricted mTOR inhibition with binary pharmacology” (Nature, 2022).
pIC50, pKd: −log10 of the molar value. Values joined by “and” are separate entries in the source; they are usually repeats but may differ in a detail not shown here. Identical values can stand only once. Like-named read-outs stand apart in the source and are kept apart here.

Key:
LRRK2 [1] = biological target: T1, LRRK2 (Homo sapiens, UniProt Q5S007); test: In vitro LRRK2 kinase inhibition assay (SelectScreen Adapta), with or without 10 µM FKBP12; type: biochemical
T1 construct: purchased SelectScreen Services (Thermo Fisher Scientific)
Protocol: In vitro kinase inhibition assays were performed by SelectScreen Services (Thermo Fisher Scientific) using either Z’-LYTE (mTOR, Src, Csk, EGFR, HER2 and HGK), Adapta (LRRK2) or LanthaScreen (DDR2) assay format (standardized protocols can be accessed on the SelectScreen website: https://www.thermofisher.com/us/en/home/products-and-services/services/custom-services/screening-and-profiling-services/selectscreen-profiling-service/selectscreen-kinase-profiling-service.html. When indicated, recombinant FKBP12 protein was added to the assay mixture to a final concentration of 10 µM.

LRRK2 [2] = biological target: LRRK2 (Mus musculus, UniProt Q5S006); test: Phospho-LRRK2 (S935) quantification by TR-FRET in RAW264.7 cells; settings: for P-LRRK2(S935) in RAW264.7 cells: replicate raw data
Protocol: Phospho-LRRK2 (S935) was quantified in drug-treated cells using a Phospho-LRRK2 (Ser935) cellular kit (Cisbio) following the manufacturer’s instructions. […] Cells were treated with compounds at the indicated concentrations for 2 h. Medium was removed by aspiration and the cells were rinsed with ice-cold PBS (1 ml). Cells were lysed with 100 µl Cisbio 1X lysis buffer at 23 °C directly in plate for 30 min. […] Clarified lysate (16 µl) was dispensed into one well of a low-volume, round-bottom 384-well plate, and 4 µl LRRK2–phospho-LRRK2 (S935) antibody master mix (Cisbio) was added to each well. The plate was incubated at 23 °C for 4 h.
The TR-FRET signal was calculated as the ratio fluorescence intensity [read B]/[read A].

FKBP12 = biological target: T2, FKBP12 (Homo sapiens, UniProt P62942); test: Competition fluorescence polarization assay with FITC-rapamycin tracer; type: binding; settings: recombinant FKBP12, Extended Data Fig. 2; read-out: Kd (FKBP12)
T2 construct: His-tag (HRV 3C cleavable) (cleaved yes); made in house; host or cells: Escherichia coli BL21(DE3)
Protocol: Compound binding affinity was determined using a competition fluorescence polarization assay. […] The assay buffer was 20 mM HEPES pH 7.5 and 0.01% Triton X-100. […] Data were fitted to a three-parameter sigmoidal curve to derive IC50 values. Ki of the compounds were calculated using a tool provided by S. Wang’s laboratory (http://www.umich.edu/~shaomengwanglab/software/calc_ki/index.html). Data were plotted in GraphPad Prism 9.0.

[3] = read-out: residual kinase activity (LRRK2), 0.495 nM drug, + 10 µM FKBP12
[4] = read-out: residual kinase activity (LRRK2), 0.495 nM drug, no FKBP12
[5] = read-out: residual kinase activity (LRRK2), 1.52 nM drug, + 10 µM FKBP12
[6] = read-out: residual kinase activity (LRRK2), 1.52 nM drug, no FKBP12
[7] = read-out: residual kinase activity (LRRK2), 4.57 nM drug, + 10 µM FKBP12
[8] = read-out: residual kinase activity (LRRK2), 4.57 nM drug, no FKBP12
[9] = read-out: residual kinase activity (LRRK2), 13.7 nM drug, + 10 µM FKBP12
[10] = read-out: residual kinase activity (LRRK2), 13.7 nM drug, no FKBP12
[11] = read-out: residual kinase activity (LRRK2), 41.2 nM drug, + 10 µM FKBP12
[12] = read-out: residual kinase activity (LRRK2), 41.2 nM drug, no FKBP12
[13] = read-out: residual kinase activity (LRRK2), 123 nM drug, + 10 µM FKBP12
[14] = read-out: residual kinase activity (LRRK2), 123 nM drug, no FKBP12
[15] = read-out: residual kinase activity (LRRK2), 370 nM drug, + 10 µM FKBP12
[16] = read-out: residual kinase activity (LRRK2), 370 nM drug, no FKBP12
[17] = read-out: residual kinase activity (LRRK2), 1110 nM drug, + 10 µM FKBP12
[18] = read-out: residual kinase activity (LRRK2), 1110 nM drug, no FKBP12
[19] = read-out: residual kinase activity (LRRK2), 3330 nM drug, + 10 µM FKBP12
[20] = read-out: residual kinase activity (LRRK2), 3330 nM drug, no FKBP12
[21] = read-out: residual kinase activity (LRRK2), 10000 nM drug, + 10 µM FKBP12
[22] = read-out: residual kinase activity (LRRK2), 10000 nM drug, no FKBP12
[23] = 100 nM compound, +1 µM RapaBlock

T2 sequence (P62942 whole entry): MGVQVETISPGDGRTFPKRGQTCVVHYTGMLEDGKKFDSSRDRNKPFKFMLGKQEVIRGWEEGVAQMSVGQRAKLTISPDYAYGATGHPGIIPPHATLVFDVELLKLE
Chain of LRRK2 (Mus musculus, UniProt Q5S006) (Q5S006 whole entry): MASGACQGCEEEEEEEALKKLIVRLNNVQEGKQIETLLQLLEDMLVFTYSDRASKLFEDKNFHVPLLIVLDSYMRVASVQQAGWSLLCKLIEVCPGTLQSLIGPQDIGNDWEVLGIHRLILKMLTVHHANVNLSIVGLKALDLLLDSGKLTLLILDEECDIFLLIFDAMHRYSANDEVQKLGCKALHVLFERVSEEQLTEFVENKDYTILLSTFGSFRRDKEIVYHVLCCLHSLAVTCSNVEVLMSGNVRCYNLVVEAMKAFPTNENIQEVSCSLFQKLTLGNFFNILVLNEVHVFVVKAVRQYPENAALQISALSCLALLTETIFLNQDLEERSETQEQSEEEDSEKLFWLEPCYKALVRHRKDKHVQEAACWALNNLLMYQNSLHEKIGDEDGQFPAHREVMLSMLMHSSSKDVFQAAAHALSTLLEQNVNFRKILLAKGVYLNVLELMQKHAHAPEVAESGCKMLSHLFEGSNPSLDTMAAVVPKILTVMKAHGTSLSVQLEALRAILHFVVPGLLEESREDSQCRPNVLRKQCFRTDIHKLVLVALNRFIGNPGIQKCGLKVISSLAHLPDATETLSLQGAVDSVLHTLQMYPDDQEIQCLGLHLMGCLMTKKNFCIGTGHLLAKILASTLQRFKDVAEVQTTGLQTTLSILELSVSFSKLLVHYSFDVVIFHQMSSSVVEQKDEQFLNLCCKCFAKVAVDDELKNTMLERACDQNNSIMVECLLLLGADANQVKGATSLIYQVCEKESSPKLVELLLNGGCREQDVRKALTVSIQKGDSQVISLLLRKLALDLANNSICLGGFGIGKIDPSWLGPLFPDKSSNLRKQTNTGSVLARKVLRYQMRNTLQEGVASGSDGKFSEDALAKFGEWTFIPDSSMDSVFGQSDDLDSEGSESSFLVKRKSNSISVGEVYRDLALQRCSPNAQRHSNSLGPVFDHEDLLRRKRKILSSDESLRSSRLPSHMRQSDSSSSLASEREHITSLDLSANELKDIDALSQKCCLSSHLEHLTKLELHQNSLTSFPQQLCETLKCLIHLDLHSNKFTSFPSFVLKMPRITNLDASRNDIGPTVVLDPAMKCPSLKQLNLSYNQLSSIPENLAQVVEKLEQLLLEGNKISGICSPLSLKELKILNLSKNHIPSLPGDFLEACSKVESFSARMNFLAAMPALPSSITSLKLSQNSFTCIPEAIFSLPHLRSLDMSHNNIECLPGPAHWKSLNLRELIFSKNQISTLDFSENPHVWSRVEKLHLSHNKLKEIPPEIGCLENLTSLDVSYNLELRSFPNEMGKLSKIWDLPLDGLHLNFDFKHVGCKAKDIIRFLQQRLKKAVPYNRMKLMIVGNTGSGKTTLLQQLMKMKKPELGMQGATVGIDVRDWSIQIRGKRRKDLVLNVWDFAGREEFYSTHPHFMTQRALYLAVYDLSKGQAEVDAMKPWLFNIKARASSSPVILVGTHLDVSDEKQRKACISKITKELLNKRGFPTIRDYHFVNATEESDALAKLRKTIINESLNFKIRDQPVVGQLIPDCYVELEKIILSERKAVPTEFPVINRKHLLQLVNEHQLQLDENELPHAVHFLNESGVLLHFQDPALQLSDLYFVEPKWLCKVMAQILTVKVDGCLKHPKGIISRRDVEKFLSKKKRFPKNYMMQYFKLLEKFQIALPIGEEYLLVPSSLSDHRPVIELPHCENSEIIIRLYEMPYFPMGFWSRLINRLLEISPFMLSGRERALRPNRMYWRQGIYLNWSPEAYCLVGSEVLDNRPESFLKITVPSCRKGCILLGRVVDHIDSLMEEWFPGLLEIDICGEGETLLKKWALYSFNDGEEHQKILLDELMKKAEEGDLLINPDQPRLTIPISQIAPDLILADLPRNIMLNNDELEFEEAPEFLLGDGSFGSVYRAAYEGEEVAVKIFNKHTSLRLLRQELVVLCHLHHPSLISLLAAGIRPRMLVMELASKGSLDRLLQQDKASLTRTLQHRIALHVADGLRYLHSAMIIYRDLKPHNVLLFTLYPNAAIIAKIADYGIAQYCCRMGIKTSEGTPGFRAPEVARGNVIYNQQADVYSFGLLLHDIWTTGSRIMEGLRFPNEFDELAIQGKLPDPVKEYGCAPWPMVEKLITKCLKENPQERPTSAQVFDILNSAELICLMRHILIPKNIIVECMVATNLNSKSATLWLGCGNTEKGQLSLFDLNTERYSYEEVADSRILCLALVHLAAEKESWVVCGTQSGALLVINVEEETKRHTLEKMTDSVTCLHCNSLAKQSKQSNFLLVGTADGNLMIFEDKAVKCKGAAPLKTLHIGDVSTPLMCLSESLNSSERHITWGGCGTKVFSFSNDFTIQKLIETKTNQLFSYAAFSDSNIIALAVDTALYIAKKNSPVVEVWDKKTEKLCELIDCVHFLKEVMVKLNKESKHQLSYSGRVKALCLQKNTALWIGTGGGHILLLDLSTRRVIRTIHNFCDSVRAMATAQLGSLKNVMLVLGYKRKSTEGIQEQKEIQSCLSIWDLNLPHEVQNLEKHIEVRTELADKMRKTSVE
T1 sequence (Q5S007 whole entry): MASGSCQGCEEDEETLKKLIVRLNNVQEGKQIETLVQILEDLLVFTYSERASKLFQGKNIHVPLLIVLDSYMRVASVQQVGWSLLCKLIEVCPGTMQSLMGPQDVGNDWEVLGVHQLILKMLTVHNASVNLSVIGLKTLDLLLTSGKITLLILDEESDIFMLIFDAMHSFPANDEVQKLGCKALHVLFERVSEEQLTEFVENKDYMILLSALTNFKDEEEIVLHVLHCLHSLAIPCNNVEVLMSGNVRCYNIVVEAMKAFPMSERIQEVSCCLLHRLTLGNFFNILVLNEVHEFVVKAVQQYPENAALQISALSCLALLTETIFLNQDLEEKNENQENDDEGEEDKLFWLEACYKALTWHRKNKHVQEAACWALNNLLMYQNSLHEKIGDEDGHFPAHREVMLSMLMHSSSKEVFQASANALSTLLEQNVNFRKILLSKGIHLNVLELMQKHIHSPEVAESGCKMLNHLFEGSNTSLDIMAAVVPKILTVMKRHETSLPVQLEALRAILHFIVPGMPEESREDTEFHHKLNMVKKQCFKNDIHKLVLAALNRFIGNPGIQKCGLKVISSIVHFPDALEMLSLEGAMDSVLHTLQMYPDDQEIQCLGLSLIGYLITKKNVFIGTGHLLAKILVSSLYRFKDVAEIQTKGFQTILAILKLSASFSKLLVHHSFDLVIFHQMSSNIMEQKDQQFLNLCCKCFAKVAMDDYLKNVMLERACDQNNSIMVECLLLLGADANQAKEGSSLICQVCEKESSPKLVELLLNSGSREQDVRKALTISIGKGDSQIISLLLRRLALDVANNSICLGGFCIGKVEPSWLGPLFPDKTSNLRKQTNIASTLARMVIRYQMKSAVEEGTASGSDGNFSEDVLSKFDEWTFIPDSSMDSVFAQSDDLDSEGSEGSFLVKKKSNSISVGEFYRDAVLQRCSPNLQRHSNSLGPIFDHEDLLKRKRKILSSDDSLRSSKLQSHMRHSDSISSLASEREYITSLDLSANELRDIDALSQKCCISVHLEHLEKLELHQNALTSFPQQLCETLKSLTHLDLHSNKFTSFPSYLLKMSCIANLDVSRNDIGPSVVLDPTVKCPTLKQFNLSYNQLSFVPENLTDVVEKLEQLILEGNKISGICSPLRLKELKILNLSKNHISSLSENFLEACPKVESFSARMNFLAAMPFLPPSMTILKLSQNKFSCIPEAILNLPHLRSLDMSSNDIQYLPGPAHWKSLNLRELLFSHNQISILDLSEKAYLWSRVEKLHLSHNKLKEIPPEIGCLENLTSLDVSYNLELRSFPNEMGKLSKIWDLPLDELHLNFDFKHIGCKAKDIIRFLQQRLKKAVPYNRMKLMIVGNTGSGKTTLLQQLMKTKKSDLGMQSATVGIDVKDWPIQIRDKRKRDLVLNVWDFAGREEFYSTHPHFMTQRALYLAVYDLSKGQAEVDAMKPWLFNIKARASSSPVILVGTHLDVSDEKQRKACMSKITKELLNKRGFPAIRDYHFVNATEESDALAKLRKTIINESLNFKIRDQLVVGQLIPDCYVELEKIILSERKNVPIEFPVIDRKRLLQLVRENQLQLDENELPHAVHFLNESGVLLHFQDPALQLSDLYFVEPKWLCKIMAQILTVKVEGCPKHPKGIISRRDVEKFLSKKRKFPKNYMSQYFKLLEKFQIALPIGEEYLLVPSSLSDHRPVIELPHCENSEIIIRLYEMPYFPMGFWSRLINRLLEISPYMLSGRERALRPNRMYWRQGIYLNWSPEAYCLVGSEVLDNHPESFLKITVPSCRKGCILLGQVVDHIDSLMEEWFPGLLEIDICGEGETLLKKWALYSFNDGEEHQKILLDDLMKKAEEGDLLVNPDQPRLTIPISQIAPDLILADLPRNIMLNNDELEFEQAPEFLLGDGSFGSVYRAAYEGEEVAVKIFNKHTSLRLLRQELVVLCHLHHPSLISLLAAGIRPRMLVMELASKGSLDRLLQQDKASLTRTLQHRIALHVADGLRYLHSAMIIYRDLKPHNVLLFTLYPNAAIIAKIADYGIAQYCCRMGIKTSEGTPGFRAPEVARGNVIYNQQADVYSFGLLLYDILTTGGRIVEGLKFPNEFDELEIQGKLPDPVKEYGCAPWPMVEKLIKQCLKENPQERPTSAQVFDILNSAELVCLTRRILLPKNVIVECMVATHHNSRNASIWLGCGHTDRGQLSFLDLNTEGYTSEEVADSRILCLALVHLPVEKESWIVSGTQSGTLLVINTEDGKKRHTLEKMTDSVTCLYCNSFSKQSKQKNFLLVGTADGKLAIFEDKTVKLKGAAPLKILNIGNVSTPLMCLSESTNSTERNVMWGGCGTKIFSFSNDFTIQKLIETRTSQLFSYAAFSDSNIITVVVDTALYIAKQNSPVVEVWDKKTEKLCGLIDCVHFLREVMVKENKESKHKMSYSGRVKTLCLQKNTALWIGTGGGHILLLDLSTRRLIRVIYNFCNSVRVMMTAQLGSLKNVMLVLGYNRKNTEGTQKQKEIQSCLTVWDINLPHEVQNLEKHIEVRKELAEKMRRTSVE

Question: What does the source list for `CCNc1nc(Nc2cc(F)c(C(=O)N3CCN(C(=O)CCC[C@@H]4/C=C(\C)C[C@H](C)C[C@H](OC)[C@H]5O[C@@](O)(C(=O)C(=O)N6CCCC[C@H]6C(=O)O[C@H](/C(C)=C/[C@@H]6CC[C@@H](O)[C@H](OC)C6)[C@H](C)[C@@H](O)CC4=O)[C@H](C)C[C@@H]5OC)CC3)cc2OC)ncc1C(F)(F)F` [FK-GNE7915]?
Answer: residual kinase activity (LRRK2) (LRRK2 [1]; 0.495 nM drug, + 10 µM FKBP12): 87; residual kinase activity (LRRK2) (LRRK2 [1]; 0.495 nM drug, no FKBP12): 95; residual kinase activity (LRRK2) (LRRK2 [1]; 1.52 nM drug, + 10 µM FKBP12): 87; residual kinase activity (LRRK2) (LRRK2 [1]; 1.52 nM drug, no FKBP12): 95; residual kinase activity (LRRK2) (LRRK2 [1]; 4.57 nM drug, + 10 µM FKBP12): 65; residual kinase activity (LRRK2) (LRRK2 [1]; 4.57 nM drug, no FKBP12): 107; residual kinase activity (LRRK2) (LRRK2 [1]; 13.7 nM drug, no FKBP12): 90; residual kinase activity (LRRK2) (LRRK2 [1]; 41.2 nM drug, + 10 µM FKBP12): 41; residual kinase activity (LRRK2) (LRRK2 [1]; 41.2 nM drug, no FKBP12): 70; residual kinase activity (LRRK2) (LRRK2 [1]; 123 nM drug, + 10 µM FKBP12): 31; residual kinase activity (LRRK2) (LRRK2 [1]; 123 nM drug, no FKBP12): 47; residual kinase activity (LRRK2) (LRRK2 [1]; 370 nM drug, no FKBP12): 25; residual kinase activity (LRRK2) (LRRK2 [1]; 1110 nM drug, + 10 µM FKBP12): 7; residual kinase activity (LRRK2) (LRRK2 [1]; 1110 nM drug, no FKBP12): 9; residual kinase activity (LRRK2) (LRRK2 [1]; 3330 nM drug, no FKBP12): 4; residual kinase activity (LRRK2) (LRRK2 [1]; 10000 nM drug, + 10 µM FKBP12): 5; residual kinase activity (LRRK2) (LRRK2 [1]; 10000 nM drug, no FKBP12): 3; remaining activity at 0.000495 µM (LRRK2 [1]; [3]): 91%; remaining activity at 0.000495 µM (LRRK2 [1]; [4]): 101%; remaining activity at 0.00152 µM (LRRK2 [1]; [5]): 91%; remaining activity at 0.00152 µM (LRRK2 [1]; [6]): 106%; remaining activity at 0.00457 µM (LRRK2 [1]; [7]): 78%; remaining activity at 0.00457 µM (LRRK2 [1]; [8]): 94%; remaining activity at 0.0137 µM (LRRK2 [1]; [9]): 57%; remaining activity at 0.0137 µM (LRRK2 [1]; [10]): 89%; remaining activity at 0.0412 µM (LRRK2 [1]; [11]): 38%; remaining activity at 0.0412 µM (LRRK2 [1]; [12]): 66%; remaining activity at 0.123 µM (LRRK2 [1]; [13]): 24%; remaining activity at 0.123 µM (LRRK2 [1]; [14]): 54%; remaining activity at […] (LRRK2 [1]; [15]): 14%; remaining activity at […] (LRRK2 [1]; [16]): 29%; remaining activity at 1.11 µM (LRRK2 [1]; [17]): 8%; remaining activity at 1.11 µM (LRRK2 [1]; [18]): 10%; remaining activity at 3.33 µM (LRRK2 [1]; [19]): 5%; remaining activity at 3.33 µM (LRRK2 [1]; [20]): 5%; remaining activity at 10 µM (LRRK2 [1]; [21]): 6%; remaining activity at 10 µM (LRRK2 [1]; [22]): 5%; pIC50 (LRRK2 [1]; with 10 µM FKBP12): 7.68; pIC50 (LRRK2 [1]; without added FKBP12): 6.97; pIC50 (LRRK2 [2]): 8.17; level of phospho-LRRK2 (S935), % of the basal level (LRRK2 [2]; 100 nM FK-GNE7915): 15%; effect on LRRK2 activity (LRRK2 [2]; 100 nM FK-GNE7915 + 1 µM RapaBlock): had no effect on LRRK2 activity; P-LRRK2(S935) in RAW264.7 cells (LRRK2 [2]; [23]): 99.2 and 97.5 and 90.7; P-LRRK2(S935) in RAW264.7 cells (LRRK2 [2]; 100 nM compound, No RapaBlock): 16.7 and 15.6 and 13.4; P-LRRK2(S935) in RAW264.7 cells (LRRK2 [2]; Conc 0.457247 nM, 0 nM = 100): 84.5 and 90.2 and 94.3; P-LRRK2(S935) in RAW264.7 cells (LRRK2 [2]; Conc 1.37174 nM, 0 nM = 100): 79.4 and 82.9 and 87.4; P-LRRK2(S935) in RAW264.7 cells (LRRK2 [2]; Conc 4.11523 nM, 0 nM = 100): 67.8 and 77.9 and 73.6; P-LRRK2(S935) in RAW264.7 cells (LRRK2 [2]; Conc 12.3457 nM, 0 nM = 100): 32.2 and 34.9 (2×); P-LRRK2(S935) in RAW264.7 cells (LRRK2 [2]; Conc 37.037 nM, 0 nM = 100): 13.7 and 14.5 and 16.2; P-LRRK2(S935) in RAW264.7 cells (LRRK2 [2]; Conc 111.111 nM, 0 nM = 100): 11.4 (2×) and 13.1; P-LRRK2(S935) in RAW264.7 cells (LRRK2 [2]; Conc 333.333 nM, 0 nM = 100): 13.1 and 12.6 and 11.8; P-LRRK2(S935) in RAW264.7 cells (LRRK2 [2]; Conc 1000 nM, 0 nM = 100): 14 and 15.7 and 13.3

Question: What does the source list for `CCNc1nc(Nc2cc(F)c(C(=O)N3CCOCC3)cc2OC)ncc1C(F)(F)F` [GNE7915]?
Answer: residual kinase activity (LRRK2) (LRRK2 [1]; 0.495 nM drug, no FKBP12): 96; residual kinase activity (LRRK2) (LRRK2 [1]; 1.52 nM drug, + 10 µM FKBP12): 66; residual kinase activity (LRRK2) (LRRK2 [1]; 1.52 nM drug, no FKBP12): 75; residual kinase activity (LRRK2) (LRRK2 [1]; 4.57 nM drug, + 10 µM FKBP12): 39; residual kinase activity (LRRK2) (LRRK2 [1]; 4.57 nM drug, no FKBP12): 41; residual kinase activity (LRRK2) (LRRK2 [1]; 13.7 nM drug, + 10 µM FKBP12): 15; residual kinase activity (LRRK2) (LRRK2 [1]; 13.7 nM drug, no FKBP12): 16; residual kinase activity (LRRK2) (LRRK2 [1]; 41.2 nM drug, + 10 µM FKBP12): 9; residual kinase activity (LRRK2) (LRRK2 [1]; 41.2 nM drug, no FKBP12): 10; residual kinase activity (LRRK2) (LRRK2 [1]; 123 nM drug, + 10 µM FKBP12): 6; residual kinase activity (LRRK2) (LRRK2 [1]; 123 nM drug, no FKBP12): 3; residual kinase activity (LRRK2) (LRRK2 [1]; 370 nM drug, + 10 µM FKBP12): 5; residual kinase activity (LRRK2) (LRRK2 [1]; 370 nM drug, no FKBP12): 3; residual kinase activity (LRRK2) (LRRK2 [1]; 1110 nM drug, no FKBP12): 3; residual kinase activity (LRRK2) (LRRK2 [1]; 10000 nM drug, + 10 µM FKBP12): 3; remaining activity at 0.000495 µM (LRRK2 [1]; [3]): 84%; remaining activity at 0.000495 µM (LRRK2 [1]; [4]): 78%; remaining activity at 0.00152 µM (LRRK2 [1]; [5]): 68%; remaining activity at 0.00152 µM (LRRK2 [1]; [6]): 68%; remaining activity at 0.00457 µM (LRRK2 [1]; [7]): 38%; remaining activity at 0.00457 µM (LRRK2 [1]; [8]): 39%; remaining activity at 0.0137 µM (LRRK2 [1]; [9]): 17%; remaining activity at 0.0137 µM (LRRK2 [1]; [10]): 18%; remaining activity at 0.0412 µM (LRRK2 [1]; [11]): 8%; remaining activity at 0.0412 µM (LRRK2 [1]; [12]): 6%; remaining activity at 0.123 µM (LRRK2 [1]; [13]): 5%; remaining activity at 0.123 µM (LRRK2 [1]; [14]): 4%; remaining activity at […] (LRRK2 [1]; [15]): 4%; remaining activity at […] (LRRK2 [1]; [16]): 5%; remaining activity at 1.11 µM (LRRK2 [1]; [17]): 5%; remaining activity at 1.11 µM (LRRK2 [1]; [18]): 4%; remaining activity at 3.33 µM (LRRK2 [1]; [19]): 5%; remaining activity at 3.33 µM (LRRK2 [1]; [20]): 3%; remaining activity at 10 µM (LRRK2 [1]; [21]): 5%; remaining activity at 10 µM (LRRK2 [1]; [22]): 3%; pIC50 (LRRK2 [1]; without added FKBP12): 8.52; pIC50 (LRRK2 [2]): 7.09; P-LRRK2(S935) in RAW264.7 cells (LRRK2 [2]; [23]): 61.9 and 64.8 and 53.2; P-LRRK2(S935) in RAW264.7 cells (LRRK2 [2]; 100 nM compound, No RapaBlock): 56 and 55.7 and 48.1

Question: `CO[C@H]1C[C@@H](C)C/C(C)=C/[C@@H](C/C=C/c2ccccn2)C(=O)C[C@H](O)[C@@H](C)[C@@H](/C(C)=C/[C@@H]2CC[C@@H](O)[C@H](OC)C2)OC(=O)[C@@H]2CCCCN2C(=O)C(=O)[C@]2(O)O[C@H]1[C@@H](OC)C[C@H]2C` [Compound 05-050] was tested. Which pKd (FKBP12) did it give?
Answer: 8.44

Question: `CCC(C)(C)C(=O)C(=O)N1CCCC[C@H]1C(=O)O[C@H](CCc1ccc(OC)c(OC)c1)c1cccc(N(CC(=O)O)CC(=O)O)c1` [Compound 01-060B] was tested. Which pKd (FKBP12) did it give?
Answer: 7.12

Question: `CCC(C)(C)C(=O)C(=O)N1CCCC[C@H]1C(=O)O[C@H](CCc1ccc(OC)c(OC)c1)c1cccc(OCCN)c1` [Compound 01-038] was tested. Which pKd (FKBP12) did it give?
Answer: 8.03

Question: How did the pKd (FKBP12) turn out when `CCC(C)(C)C(=O)C(=O)N1CCCC[C@H]1C(=O)O[C@H](CCc1ccc(OC)c(OC)c1)c1cccc(NC(=O)CNC(=N)N)c1` [Compound 01-065] was run?
Answer: 7.42
